Source: PubChem BioAssay AID1259411 (Chemical Carcinogenesis Research Information System (CCRIS), 2018)
The source made the active and inactive calls. The rule behind the calls is not given here.

Tested on: rodent carcinogenicity bioassays, tumor incidence
Assay: CCRIS carcinogenicity studies
How it was run: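 NCI-built, expert-reviewed records of carcinogenicity and related test outcomes (mutagenicity, tumor promotion/inhibition) compiled from published and report sources, historical span 1985-2011, not updated.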

Cc1noc(NS(=O)(=O)c2ccc(N)cc2)c1C
carcinogen call (Species: MOUSE, Strain/Sex: B6C3F1/FEMALE, Route: GAVAGE, Dose: 0, 500, 2000 MG/KG IN 0.5% AQ CMC, Dose: 0, 500, 2000 MG/KG IN 0.5% AQ CMC): inactive; negative
carcinogen call (Species: MOUSE, Strain/Sex: B6C3F1/MALE, Route: GAVAGE, Dose: 0, 500, 2000 MG/KG IN 0.5% AQ CMC, Dose: 0, 500, 2000 MG/KG IN 0.5% AQ CMC): inactive; negative
carcinogen call (Species: RAT, Strain/Sex: F344/FEMALE, Route: GAVAGE, Dose: 0, 100, 400 MG/KG IN 0.5% AQ CMC, Dose: 0, 100, 400 MG/KG IN 0.5% AQ CMC): inactive; negative
carcinogen call (Species: RAT, Strain/Sex: F344/MALE, Route: GAVAGE, Dose: 0, 100, 400 MG/KG IN 0.5% AQ CMC, Dose: 0, 100, 400 MG/KG IN 0.5% AQ CMC): inactive; negative

O=C1O[C@H]([C@@H](O)CO)C(O)=C1O
carcinogen call (Species: MOUSE, Strain/Sex: B6C3F1/FEMALE, Route: ORAL, Dose: 0, 25000, 50000 PPM IN DIET FOR 103 WK, Dose: 0, 25000, 50000 PPM IN DIET FOR 103 WK): inactive; negative
carcinogen call (Species: MOUSE, Strain/Sex: B6C3F1/MALE, Route: ORAL, Dose: 0, 25000, 50000 PPM IN DIET FOR 103 WK, Dose: 0, 25000, 50000 PPM IN DIET FOR 103 WK): inactive; negative
carcinogen call (Species: RAT, Strain/Sex: F344/FEMALE, Route: ORAL, Dose: 0, 25000, 50000 PPM IN DIET FOR 103 WK, Dose: 0, 25000, 50000 PPM IN DIET FOR 103 WK): inactive; negative
carcinogen call (Species: RAT, Strain/Sex: F344/MALE, Route: ORAL, Dose: 0, 1, 5, 7% IN DIET OF MALE RATS, PARENTAL GENERATION ALSO FED SODIUM ASCORBATE FOR 4 WK BEFORE MATING THEN CONTINUING I, Dose: 0, 1, 5, 7% IN DIET OF MALE RATS, PARENTAL GENERATION ALSO FED SODIUM ASCORBATE FOR 4 WK BEFORE MATING THEN CONTINUING I): inactive; negative
carcinogen call (Species: RAT, Strain/Sex: F344/MALE, Route: ORAL, Dose: 0, 25000, 50000 PPM IN DIET FOR 103 WK, Dose: 0, 25000, 50000 PPM IN DIET FOR 103 WK): inactive; negative
carcinogen call (Species: Rat, Strain/Sex: F344/Male (9-15/group), Route: Oral, Dose: 0, 1%, 1% with 0.2% sodium nitrite in diet for 32 wk, study duration 32 wk in surgically altered rats to produce chronic, Dose: 0, 1%, 1% with 0.2% sodium nitrite in diet for 32 wk, study duration 32 wk in surgically altered rats to produce chronic, Tumor Site: Type of Lesion: Esophagus examined): inactive; negative (significant increase in hyperplasia observed in combined chemical grou
carcinogen call (Species: Rat, Strain/Sex: Non-tg/Male, Route: Oral, Dose: 5% sodium ascorbate in diet, continuous, for 57 wk until sacrifice, Tumor Site: Type of Lesion: Total tumor-bearing animals (20.0% in experimental animals vs 25.0% in controls), no bladder tumors): inactive; negative. parallel experiment in hras128 rat line was conducted to determine bla

C=C1C[C@@]23CC[C@H]4[C@@](C)(CCC[C@@]4(C)C(=O)O[C@@H]4O[C@H](CO)[C@@H](O)[C@H](O)[C@H]4O)[C@@H]2CC[C@]1(O[C@@H]1O[C@H](CO)[C@@H](O)[C@H](O)[C@H]1O[C@@H]1O[C@H](CO)[C@@H](O)[C@H](O)[C@H]1O)C3
carcinogen call (Species: RAT, Strain/Sex: F344/FEMALE, Route: ORAL, Dose: 0, 2.5, 5% IN DIET FOR 104 WK (STUDY DURATION: 108 WK), Dose: 0, 2.5, 5% IN DIET FOR 104 WK (STUDY DURATION: 108 WK)): inactive; negative
carcinogen call (Species: RAT, Strain/Sex: F344/MALE, Route: ORAL, Dose: 0, 2.5, 5% IN DIET FOR 104 WK (STUDY DURATION: 108 WK), Dose: 0, 2.5, 5% IN DIET FOR 104 WK (STUDY DURATION: 108 WK)): inactive; negative
carcinogen call (Species: RAT, Strain/Sex: WISTAR/FEMALE, Route: ORAL, Dose: 0, 0.2, 0.6%, 1.2% IN DIET FOR 24 MO (STUDY DURATION: 24 MO), Dose: 0, 0.2, 0.6%, 1.2% IN DIET FOR 24 MO (STUDY DURATION: 24 MO)): inactive; negative
carcinogen call (Species: RAT, Strain/Sex: WISTAR/MALE, Route: ORAL, Dose: 0, 0.2, 0.6, 1.2% IN DIET FOR 24 MO (STUDY DURATION: 24 MO), Dose: 0, 0.2, 0.6, 1.2% IN DIET FOR 24 MO (STUDY DURATION: 24 MO)): inactive; negative

ClC(Cl)=C(Cl)C(Cl)=C(Cl)Cl
carcinogen call (Species: RAT, Strain/Sex: SPRAGUE-DAWLEY/MALE,FEMALE, Route: ORAL, Dose: 0.2, 2.0, 20 MG/KG/DAY IN DIET, Dose: 0.2, 2.0, 20 MG/KG/DAY IN DIET, Tumor Site: Type of Lesion: KIDNEY: RENAL TUBULAR ADENOMA, ADENOCARCINOMA): active; positive

Nc1ccc(S(=O)(=O)c2ccc(N)cc2)cc1
carcinogen call (Species: MOUSE, Strain/Sex: B6C3F1/FEMALE, Route: ORAL, Dose: 0, 500, 1000 PPM IN DIET FOR 78 WK (STUDY DURATION: 105-108 WK), Dose: 0, 500, 1000 PPM IN DIET FOR 78 WK (STUDY DURATION: 105-108 WK)): inactive; negative
carcinogen call (Species: MOUSE, Strain/Sex: B6C3F1/MALE, Route: ORAL, Dose: 0, 500, 1000 PPM IN DIET FOR 78 WK (STUDY DURATION: 105-106 WK), Dose: 0, 500, 1000 PPM IN DIET FOR 78 WK (STUDY DURATION: 105-106 WK)): inactive; negative
carcinogen call (Species: RAT, Strain/Sex: BDIV/MALE,FEMALE, Route: GAVAGE, Dose: 100 MG/KG TO MOTHERS DURING PREGNANCY AND DURING WEANING, 52 G/KG (TOTAL DOSE) TO OFFSPRING AFTER WEANING, Tumor Site: Type of Lesion: THYROID GLAND: MALIGNANT C CELL TUMOR): active; positive
carcinogen call (Species: RAT, Strain/Sex: F344/FEMALE, Route: ORAL, Dose: 0, 600, 1200 PPM IN DIET FOR 78 WK (STUDY DURATION: 105-106 WK), Dose: 0, 600, 1200 PPM IN DIET FOR 78 WK (STUDY DURATION: 105-106 WK)): inactive; negative
carcinogen call (Species: RAT, Strain/Sex: F344/FEMALE, Route: ORAL, Dose: 0, 600, 1200 PPM IN DIET FOR 78 WK (STUDY DURATION: 105 WK), Dose: 0, 600, 1200 PPM IN DIET FOR 78 WK (STUDY DURATION: 105 WK)): inactive; negative
carcinogen call (Species: RAT, Strain/Sex: F344/MALE, Route: ORAL, Dose: 0, 600, 1200 PPM IN DIET FOR 78 WK (STUDY DURATION: 104-106 WK), Dose: 0, 600, 1200 PPM IN DIET FOR 78 WK (STUDY DURATION: 104-106 WK), Tumor Site: Type of Lesion: SPLEEN: FIBROMA OR FIBROSARCOMA OR SARCOMA (NOS), PERITONEAL CAVITY: FIBROSARCOMA, SARCOMA (NOS)): active; positive
carcinogen call (Species: RAT, Strain/Sex: F344/MALE, Route: ORAL, Dose: 0, 600, 1200 PPM IN DIET FOR 78 WK (STUDY DURATION: 105 WK), Dose: 0, 600, 1200 PPM IN DIET FOR 78 WK (STUDY DURATION: 105 WK), Tumor Site: Type of Lesion: SPLEEN OR PERITONEUM: SARCOMA): active; positive
carcinogen call (Species: RAT, Strain/Sex: WISTAR/MALE, Route: ORAL, Dose: 0.025% INCREASED TO 0.3% BY THIRD MO, Tumor Site: Type of Lesion: MULTIPLE SITES): active; positive

O=[N+]([O-])c1cc2ccc3cc4ccccc4c4ccc(c1)c2c34
carcinogen call (Species: MOUSE, Strain/Sex: B6C3F1/MALE, Route: INTRAPERITONEAL, Dose: 0, 400 NMOL IN 35 µL DMSO ON DAYS 1 (1/7 TOTAL DOSE), 8 (2/7 TOTAL DOSE), AND 15 (4/7 TOTAL DOSE) AFTER BIRTH (STUDY DUR, Tumor Site: Type of Lesion: LIVER: ADENOMA OR CARCINOMA): active; positive

CN(C=O)N=O
carcinogen call (Species: HAMSTER, Strain/Sex: SYRIAN/FEMALE, Route: GAVAGE, Dose: 0, 0.6 MG IN CORN OIL 1/WK FOR 15 WK (STUDY DURATION: 30 WK)): inactive; negative
carcinogen call (Species: HAMSTER, Strain/Sex: SYRIAN/MALE, Route: GAVAGE, Dose: 0, 0.6 MG IN CORN OIL 1/WK FOR 15 WK (STUDY DURATION: 35 WK), Tumor Site: Type of Lesion: FORESTOMACH: TUMOR): active; positive
carcinogen call (Species: RAT, Strain/Sex: F344/FEMALE, Route: GAVAGE, Dose: 0, 0.6 MG IN CORN OIL 2/WK FOR 20 WK (STUDY DURATION: 40 WK), Tumor Site: Type of Lesion: FORESTOMACH: TUMOR, ESOPHAGUS: TUMOR): active; positive
carcinogen call (Species: RAT, Strain/Sex: F344/MALE, Route: GAVAGE, Dose: 0, 0.6 MG IN CORN OIL 2/WK FOR 20 WK (STUDY DURATION: 40 WK), Tumor Site: Type of Lesion: FORESTOMACH: TUMOR): active; positive
